The text below walks through data of US12151017B2, “Compositions and methods for hair regrowth” (Nutraceutical Wellness, Inc., priority 2015, dated 2024).

The test system of the assay is hair loss, Stage III Vertex/Stage IV MPHL. The assay is described as follows: Example 1: single subject given the components cumulatively over 7 months. In kind it is in vivo, human. The settings on record: taken before the implementations of the disclosure.

Method: During month 4, the subject was additionally given a daily 250 mg dose of Ashwagandha extracted from Withania somnifera, containing at least 8% withanolide glycosides and 32% oligosaccharides from the roots and leaves (Sensoril®, Natreon, New Brunswick, NJ) for stress associated with their condition and work. […] During month 5, the subject was additionally given a daily dose of Certified Organic saw palmetto extract Standardized 85-95% fatty acids (Valensa Eustis, FL) in the amount of 640 mg a day. […] During month 6, the subject added a 100 mg dose of tocotrienol/tocopherol complex comprising 78% tocotrienols and 22% tocopherols (Tocomax™ 20%, Carotech, Malaysia) a day. […] Lastly, in month 7, They were additionally given approximately 1000 mg of hydrolyzed marine collagen Types I and III (Youtheory, Tustin, CA) and 100 mg of hyaluronic acid (NOW Foods, Bloomingdale, IL).

As to `O=C(O)CCCC[C@@H]1SC[C@@H]2NC(=O)N[C@@H]21` [biotin], the “hair outcome of earlier treatments (subject's history)” value is reported as “did not result in a noticeable cessation of hair loss or new hair growth”.

Consider `CC(C)(C)NC(=O)[C@H]1CC[C@H]2[C@@H]3CC[C@H]4NC(=O)C=C[C@]4(C)[C@H]3CC[C@]12C` [finasteride], for which the “hair outcome of earlier treatments (subject's history)” value was “improvement was minimal”.
